Source: ChEMBL document CHEMBL1201862, “PubChem BioAssay data set” (2004)
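All cell lines were grown in 96-well plates and treated with compound for 48 hours. Abbreviation: GI50, concentration required for 50% inhibition of growth.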 Activity calls are given as the source filed them. Rule as the data show it: active = GI50 up to about 1.1 µM and inactive = higher.

What was measured:
Assay in all cases: growth of human tumour cells (NCI), 48 h
SNB-75 = test system: SNB-75
HCC 2998 = test system: HCC 2998
Malme-3M = test system: Malme-3M
PC-3 = test system: PC-3
U-251 = test system: U-251
LOX IMVI = test system: LOX IMVI
MDA-N = test system: MDA-N
SK-MEL-2 = test system: SK-MEL-2
ACHN = test system: ACHN
IGROV-1 = test system: IGROV-1
HOP-62 = test system: HOP-62
NCI-H226 = test system: NCI-H226
SW-620 = test system: SW-620
SK-OV-3 = test system: SK-OV-3
SF-539 = test system: SF-539
MDA-MB-435 = test system: MDA-MB-435
UO-31 = test system: UO-31
OVCAR-5 = test system: OVCAR-5
UACC-62 = test system: UACC-62

SMILES | GI50 (SNB-75) | GI50 (HCC 2998) | GI50 (Malme-3M) | GI50 (PC-3) | GI50 (U-251) | GI50 (LOX IMVI) | GI50 (MDA-N) | GI50 (SK-MEL-2) | GI50 (ACHN) | GI50 (IGROV-1) | GI50 (HOP-62) | GI50 (NCI-H226) | GI50 (SW-620) | GI50 (SK-OV-3) | GI50 (SF-539) | GI50 (MDA-MB-435) | GI50 (UO-31) | GI50 (OVCAR-5) | GI50 (UACC-62)
O=C(O)c1cccc(S(=O)(=O)NN2C(=O)CSC2c2ccccc2Cl)c1 (centres undefined) | > 100 µM (inactive) | > 100 µM (inactive) | > 100 µM (inactive) | > 100 µM (inactive) | > 100 µM (inactive) | > 100 µM (inactive) | > 100 µM (inactive) | > 100 µM (inactive) | > 100 µM (inactive) | > 100 µM (inactive) | > 100 µM (inactive) | 58.3 µM (inactive) | > 100 µM (inactive) | > 100 µM (inactive) | > 100 µM (inactive) | > 100 µM (inactive) | > 100 µM (inactive) | > 100 µM (inactive) | > 100 µM (inactive)
CN(c1ccccc1Cl)S(=O)(=O)c1ccc([N+](=O)[O-])cc1 | > 100 µM (inactive) | > 100 µM (inactive) | > 100 µM (inactive) | > 100 µM (inactive) | > 100 µM (inactive) | > 100 µM (inactive) | > 100 µM (inactive) | > 100 µM (inactive) | > 100 µM (inactive) | > 100 µM (inactive) | > 100 µM (inactive) | > 100 µM (inactive) | > 100 µM (inactive) | > 100 µM (inactive) | > 100 µM (inactive) | > 100 µM (inactive) | > 100 µM (inactive) | > 100 µM (inactive) | > 100 µM (inactive)
COC1CCC(OC2CC(C3(C)CCC4(CC(O)C(C)C(C(C)/C=C(\C)C(=O)C(C)CC(C)C(=O)O)O4)O3)OC3(OC(C4OC(O)(CO)C(C)CC4C)CC3C)C2C)OC1C (centres undefined) | 0.022 µM (active) | < 0.0247 µM (active) | < 0.0205 µM (active) | < 0.01 µM (active) | < 0.0166 µM (active) | < 0.0253 µM (active) | 0.0811 µM (active) | 0.161 µM (active) | < 0.038 µM (active) | 1.79 µM (inactive) | < 0.0156 µM (active) | 0.378 µM (active) | < 0.0269 µM (active) | 0.528 µM (active) | 0.0453 µM (active) | 0.0923 µM (active) | 0.0548 µM (active) | 2.99 µM (inactive) | 0.132 µM (active)
CC(C)C(=O)CC(Sc1ccc(N)cc1)c1ccccc1 (centres undefined) | 32.6 µM (inactive) | 24.7 µM (inactive) | 35.1 µM (inactive) | 35.4 µM (inactive) | 16.6 µM (inactive) | 16.6 µM (inactive) | 16 µM (inactive) | 23.3 µM (inactive) | 20 µM (inactive) | 44.1 µM (inactive) | 37.1 µM (inactive) | 46.5 µM (inactive) | 16.9 µM (inactive) | 26.4 µM (inactive) | 30.5 µM (inactive) | 13.6 µM (inactive) | 29.2 µM (inactive) | 29.4 µM (inactive) | 19 µM (inactive)
Clc1cc2nc(C3CCCCO3)[nH]c2cc1Cl (centres undefined) | 15.2 µM (inactive) | 38 µM (inactive) | 38.5 µM (inactive) | 22.3 µM (inactive) | 34.3 µM (inactive) | 20.3 µM (inactive) | 4.1 µM (inactive) | > 100 µM (inactive) | 54.8 µM (inactive) | 24 µM (inactive) | 64.7 µM (inactive) | 86.7 µM (inactive) | 19.6 µM (inactive) | 15.9 µM (inactive) | 26.8 µM (inactive) | 7.67 µM (inactive) | 11.1 µM (inactive) | > 63.1 µM (inactive) | 24.5 µM (inactive)
Clc1ccc2[nH]c(CC3CCCC3)nc2c1 | 24.4 µM (inactive) | 20 µM (inactive) | 25.5 µM (inactive) | 20.1 µM (inactive) | 17.6 µM (inactive) | 15.8 µM (inactive) | 10 µM (inactive) | 17.9 µM (inactive) | 17.1 µM (inactive) | 4.29 µM (inactive) | 15.6 µM (inactive) | 17.7 µM (inactive) | 22.4 µM (inactive) | 22.3 µM (inactive) | 21.4 µM (inactive) | 6.52 µM (inactive) | – | 24.5 µM (inactive) | 15.8 µM (inactive)
O=C1Nc2cc([N+](=O)[O-])ccc2N/C1=C/C(=O)c1ccc(Cl)cc1 | 20.1 µM (inactive) | 23.6 µM (inactive) | 26.3 µM (inactive) | 16.6 µM (inactive) | 6.56 µM (inactive) | 11.3 µM (inactive) | 24.3 µM (inactive) | 16.9 µM (inactive) | 15.1 µM (inactive) | 12.3 µM (inactive) | – | 19.5 µM (inactive) | 13.9 µM (inactive) | 19.4 µM (inactive) | 10.7 µM (inactive) | 18.7 µM (inactive) | 25.1 µM (inactive) | 21.5 µM (inactive) | 14.9 µM (inactive)
Cc1ccc(S(=O)(=O)Nn2c(O)c(C#N)c(-c3ccc(N(C)C)cc3)c(C#N)c2=O)cc1 | > 50 µM (inactive) | > 50 µM (inactive) | > 50 µM (inactive) | > 50 µM (inactive) | > 50 µM (inactive) | > 50 µM (inactive) | > 50 µM (inactive) | > 50 µM (inactive) | > 50 µM (inactive) | > 50 µM (inactive) | > 50 µM (inactive) | > 50 µM (inactive) | > 50 µM (inactive) | 0.142 µM (active) | > 50 µM (inactive) | > 50 µM (inactive) | – | 21.8 µM (inactive) | 19.8 µM (inactive)
